The values below are quoted from earlier work in patent US20210267912A1, “METHYL SULFONYL METHANE-CONTAINING COMPOSITION FOR PREVENTING OR ALLEVIATING OBESITY, FATTY LIVER, AND DIABETES” (priority 2018, published 2021).

For the data set the following is noted: animal toxicity test.

Regarding `CS(C)(=O)=O` [Methylsulfonylmethane], the Half lethal dose entry was “more than 20 g per 1 kg of body weight”.
